Experimental data published in patent US11490622B2, “Substituted heterocycles as harmful arthropod controlling agents” (SUMITOMO CHEMICAL COMPANY, LIMITED, priority 2017, dated 2022).

Columns and labels:
[1] = tested on: tobacco cutworms (Spodoptera litura); test: Test method 3: sprayed cabbage seedling, tobacco cutworm larvae; assay type: in vivo; details: 120 h, sprayed 20 mL/seedling on cabbage, second instar larvae, after 5 days, 25° C., read-out: mortality of insects
Experimental: Test compounds are made to a formulation according to a similar method to that described in the Formulation example 5, and thereto is added water containing 0.03 v/v % of Shindain (registered trademark) to prepare a diluted solution containing a prescribed concentration of the test compound.
Cabbage (Brassicae oleracea) seedling (on the developmental stage of the second to third true leaf) is planted in a cup, and the diluted solutions are sprayed into the seedling at a ratio of 20 mL/seedling. Thereafter, the stem and leaf thereof is cut out and then is installed into a cup that is covered with filter paper on the bed of the cup. Five (5) tobacco cutworms (Spodoptera litura) at the second instar larval stage are released into the cup. After 5 days, the number of the surviving insects is counted, and the mortality of insects is calculated by the following equation. Mortality (%)=(1−Number of surviving insects/5)×100
Present compound Nos: 1, 3, 4, 6 to 12, 23, 25 to 30, 32, 35 to 43, 47 to 49, 92, 93, 97, and 107

[2] = tested on: Western corn rootworms (Diabrotica virgifera virgifera); test: Test method 5: corn seedling immersed in diluted solution, Western corn rootworm larvae; assay type: in vivo; details: 120 h, corn seedling immersed 30 seconds, second instar larvae, after 5 days, 25° C., read-out: mortality of insects
Experimental: Each 1 mg of the test compounds is dissolved into 50 μL of a mixed solution of polyoxyethylene sorbitan mono-cocoate and acetone (polyoxyethylene sorbitan mono-cocoate:acetone=5:95 (v/v ratio)). Thereto is added water containing 0.03% by volume of Shindain (registered trademark) to prepare a diluted solution containing a prescribed concentration of the test compound.
A young entire seedling of Corns (Zea mays) is immersed into the diluted solution for 30 seconds. Thereafter, each two grains of the seedlings are installed in a plastic petri dish ([…]), and 10 Western corn rootworms (Diabrotica virgifera virgifera) at the second instar larval stage are released into the dish. After 5 days, the number of the dead insects is counted, and the mortality of insects is calculated by the following equation. Mortality (%)={Number of dead insects/10}×100
Present compound Nos: 1, 4, 7, 9 to 13, 23, 24, 26 to 29, 32, 33, 35, 38, 39, 41, 43, 44, 47, 48, 59, 60, 62, 63, 67 to 70, 73 to 83, and 96

In the case of `CCSc1c(-c2ccc(OCC(F)(F)C(F)(F)F)n(C)c2=O)nc2ccc(C(F)(F)F)cn12` [compound 1], the mortality at 500 ppm [1] is reported as ≥ 80% and the mortality at 500 ppm [2] is reported as ≥ 80%.
